{"source": "patent US4414225A", "about": "“Azepine derivatives and their anti-thrombotic compositions and methods” (Dr. Karl Thomae Gesellschaft mit beschrankter Haftung, priority 1981, dated 1983)", "key": {"[1]": {"system": "thrombocytes of healthy human test subjects", "assay": "Born test: collagen-induced thrombocyte aggregation, with and without PGI2 (in vitro)", "assay_type": "cell-based", "conditions": "n = 4; for inhibition at 100 µM: Homo sapiens; for mm height of curve (Born test): control 129", "description": "(§1) 2. Antithrombotic Activity: (a) The thrombocytes of healthy human test subjects were incubated for 10 minutes at 37° C. with the test substance (final concentration: 1×10^-4 mol/l). Then, aggregation was initiated with collagen in the Born test in the usual way. Shortly before aggregation was initiated, a small quantity of supernatant liquid containing prostacycline, which was obtained from rings of aorta placed in the TRIS buffer, was added to the test sample. The quantity of supernatant liquid containing prostacycline was selected so that on its own it had little or no inhibiting effect. The sample incubated with the substance reacted with PGI2 to give an inhibition of aggregation which was more than additive."}, "[2]": {"system": "thrombocytes of healthy human test subjects", "assay": "Adenosine-potentiating effect in the Born Test (thrombocyte aggregation)", "assay_type": "cell-based", "conditions": "n = 4; for mm height of curve (Born test): control 114"}, "[3]": {"system": "thrombocyte aggregation", "assay": "Prostacycline-reinforcing effect after oral administration in animals (Born Test on blood sample)", "assay_type": "in vivo, rat", "description": "as §1, with “(a)” for “2. Antithrombotic Activity: (a)”\n(c) Prostacycline-reinforcing effect after oral administration in animals:\nRats weighing 450 gm were given the compound orally at a dose of 20 mg/kg; then, after one hour, a blood sample was taken and the Born Test was carried out as described above."}, "[4]": {"assay": "Acute toxicity", "assay_type": "in vivo", "conditions": "maximum doses used (50 mg/kg per os)"}, "[5]": {"system": "normolipemic rat", "assay": "Cholesterol-reducing effect: test on the normolipemic rat", "assay_type": "in vivo", "conditions": "1.1 mg/kg (A) or 20.0 mg/kg (B), by esophageal tube twice with interval of 20 hours, serum after 28 and 44 hours", "description": "(§2) 1. Cholesterol-reducing effect\n(b) Test on the normolipemic rat:\nMale normolipemic rats with an average body weights of 250 to 300 gm were given the test compound by esophageal tube twice with an interval of 20 hours. At the start of the test, the animals were deprived of food but had free access to drinking water. The serum cholesterol levels were determined enzymatically (Boehringer Mannheim Test Combination 126.039) after 28 and 44 hours. The percentage reduction was calculated in comparison with a control group: […]"}, "[6]": {"system": "hyperlipemic rat", "assay": "Cholesterol-reducing effect: test on the hyperlipemic rat", "assay_type": "in vivo", "conditions": "50 mgm/kg by esophageal tube on two successive days, serum 24 hours after final administration", "description": "as §2\n(a) Test on the hyperlipemic rat: Literatur: P. E. Schurr et al., Atherosclerosis Drug Discovery (1976), published by C. E. Day; Plenum, New York, page 215.\nYoung male rats with an average body weight of 100 gm were made hypercholesterolemic by feeding them for 4 days on a diet consisting of 10% coconut oil, 1.5% cholesterol, 0.5% cholic acid, 0.2% choline chloride and 15% sucrose. While continuing with the diet, the test compound was administered in a methyl cellulose suspension by esophageal tube on two successive days. The animals were then made to fast overnight and 24 hours after the final administration of the test compound a blood sample was taken in order to obtain serum.\nIn the serum, the total cholesterol was determined enzymatically (Boehringer Mannheim Test Combination 126 039) and the β-lipoproteinswere determined by nephelometry, after precipitation with Ca^++ and heparin, in the Autoanalyzer. The percentage reduction was calculated by comparison with a control group: […]"}, "[7]": {"conditions": "PRP + compound C (1×10^-4 mol/l) + PGI2, collagen"}, "[8]": {"conditions": "PRP + compound C alone, 1×10^-4 mol/l, collagen"}, "[9]": {"conditions": "PRP + compound C alone (1 × 10^-4)"}}, "data": [{"compound": "Cl.Clc1ccccc1CN1CCc2ccsc2CC1", "note": "[C, 6-(2-Chlorobenzyl)-5,6,7,8-tetrahydro-4H-thieno[2,3-d]azepine hydrochloride]", "values": [{"measurement": "inhibition at 100 µM", "setting": "[1]; [7]", "result": 69, "unit": "%"}, {"measurement": "inhibition at 100 µM", "setting": "[1]; [8]", "result": 20.7, "unit": "%"}, {"measurement": "mm height of curve (Born test)", "setting": "[1]; [7]", "result": 38, "unit": "mm"}, {"measurement": "mm height of curve (Born test)", "setting": "[1]; [8]", "result": 101, "unit": "mm"}, {"measurement": "% inhibition of thrombocyte aggregation", "setting": "[2]; PRP + compound C + adenosine", "result": 61, "unit": "%"}, {"measurement": "mm height of curve (Born test)", "setting": "[2]; PRP + compound C + adenosine", "result": 44, "unit": "mm"}, {"measurement": "% inhibition of thrombocyte aggregation", "setting": "[2]; [9]", "result": 33, "unit": "%"}, {"measurement": "mm height of curve (Born test)", "setting": "[2]; [9]", "result": 75, "unit": "mm"}, {"measurement": "inhibition of aggregation", "setting": "[3]; rats treated with 20 mg/kg per os of compound C, blood sample after one hour, without PGI2, averages from three sets of tests on four animals", "result": 4, "unit": "%"}, {"measurement": "inhibition of aggregation", "setting": "[3]; rats treated with compound C, 20 mg/kg per os, blood sample after one hour, + PGI2", "result": 100, "unit": "%"}, {"measurement": "toxic side effects", "setting": "[4]", "result": "no toxic side effects were observed"}]}, {"compound": "Cl.O=C(O)c1cc2c(s1)CCN(Cc1ccccc1)CC2", "note": "[A, 6-Benzyl-5,6,7,8-tetrahydro-4H-thieno[2,3-d]azepine-2-carboxylic acid hydrochloride]", "values": [{"measurement": "Percentage reduction compared with control: Total cholesterol in the serum", "setting": "[5]", "result": -26, "unit": "%"}, {"measurement": "toxic side effects", "setting": "[4]", "result": "no toxic side effects were observed"}]}, {"compound": "CCCCCCCCCCCCN1CCc2cc(C(=O)[O-])sc2CC1.[Na+]", "values": [{"measurement": "Percentage reduction compared with controls: Cholesterol in the serum", "setting": "[6]", "result": -21, "unit": "%"}, {"measurement": "Percentage reduction compared with controls: β-lipoproteins in the serum", "setting": "[6]", "result": -51, "unit": "%"}, {"measurement": "Percentage reduction compared with control: Total cholesterol in the serum", "setting": "[5]", "result": -20, "unit": "%"}, {"measurement": "toxic side effects", "setting": "[4]", "result": "no toxic side effects were observed"}]}, {"compound": "Nc1ncnc2c1ncn2[C@@H]1O[C@H](CO)[C@@H](O)[C@H]1O", "note": "[adenosine, reference compound]", "values": [{"measurement": "% inhibition of thrombocyte aggregation", "setting": "[2]; PRP + adenosine alone", "result": 20, "unit": "%"}, {"measurement": "mm height of curve (Born test)", "setting": "[2]; PRP + adenosine alone", "result": 91, "unit": "mm"}]}, {"compound": "PGI2 [reference compound]", "values": [{"measurement": "% inhibition of thrombocyte aggregation", "setting": "[1]; PRP + PGI2 alone, collagen", "result": 30, "unit": "%"}, {"measurement": "mm height of curve (Born test)", "setting": "[1]; PRP + PGI2 alone, collagen", "result": 90, "unit": "mm"}, {"measurement": "inhibition of aggregation", "setting": "[3]; plasma of control animals + PGI2", "result": 20, "unit": "%"}]}]}
